Reference: patent publication US6339078B1, “Methods of prevention and treatment of ischemic damage” (University of Florida Research Foundation, Inc., priority 1999, dated 2002)
Entries after “also recorded” stand apart in the source; their conditions may differ.

Key:
[1] = tested on: ovariectomized rats, ischemia induced by middle cerebral artery occlusion (MCAO); assay: Ischemic lesion volume (TTC) after MCAO, post-treatment at 0.5-4 hours; type: in vivo, rat; settings: iv 100 μg/kg HPCD-complexed plus Silastic pellet at 0.5, 1, 2, or 3 hours post-occlusion; 48 hours after MCAO
[2] = tested on: ovariectomized rats, ischemia induced by middle cerebral artery occlusion (MCAO); assay: Ischemic area in brain slices after MCAO, estrogen post-treatment at 40 or 90 minutes; type: in vivo, rat; settings: administered 90 minutes after MCAO
[3] = tested on: primary rat brain capillary endothelial cells (BCEC); assay: BCEC mortality under hypoglycemia (Trypan blue); type: cell-based; settings: 2 nM; normal glucose 200 mg %
Experimental: Hypoglycemia experiments were undertaken. […] The glucose concentration of the culture media was then adjusted from 20 mg % to 200 mg % by adding appropriate amount of D-(+)-glucose to the glucose-free media and monitored by Glucose and L-Lactate Analyzer (YSI model 2300 STAT plus, YSI, Inc., Yellow Springs, Ohio). The hypoglycemic cultures were maintained for 24 hours or 48 hours prior to staining with Trypan blue. Cell mortality was counted using Trypan blue staining method. Cell death percentage was calculated as dead cell/alive cell×100%. Statistical methods used included two-way analysis of variance, applied to determine the significance of the difference among the experimental groups. Kruskal-Wallis nonparametric analysis was used for data presented as percentage. […] P<0.05 was considered significant.

[4] = tested on: primary rat brain capillary endothelial cells (BCEC); assay: BCEC mortality under combined anoxia and hypoglycemia (Trypan blue); settings: 2 nM; 100 mg % hypoglycemia and anoxia 2 hours
Experimental: Cell media contained 200 mg % or 100 mg % glucose. Culture dishes containing BCEC were placed in either an incubator or a nitrogen filled chamber for two hours. Trypan blue staining was used to distinguish live cells from dead cells. Two cell countings at two different hemacytometer squares were averaged. Mean±SEM are depicted (n=8.12). *<0.05 vs. corresponding vehicle control.
Nitrogen gas was influxed to replace the oxygen inside the chamber. The chamber was sealed and placed in the incubator for four hours for nonhypoglycemic cultures and 2 hours for hypoglycemic cultures.
Cell mortality was counted using Trypan blue staining method. Cell death percentage was calculated as dead cell/alive cell×100%.
Statistical methods used included two-way analysis of variance, applied to determine the significance of the difference among the experimental groups. Kruskal-Wallis nonparametric analysis was used for data presented as percentage. […] P<0.05 was considered significant.

[5] = Blood levels after single subcutaneous bolus injection in corn oil (radioimmunoassay); type: in vivo, male Sprague-Dawley rats; settings: 100 μg/kg sc in corn oil
Experimental: The drug was dissolved in corn oil at 100 μg/ml and the final dosage delivered was 100 μg/kg. […] Venous blood was collected into heparinized tubes, centrifuged and the plasma was collected and frozen. Levels of 17β-estradiol were determined using a commercially supplied radioimmunoassay kit.

[6] = tested on: ovariectomized rats, ischemia induced by middle cerebral artery occlusion (MCAO); assay: Ischemic area in brain slices after MCAO, estrogen pretreatment; type: in vivo, rat; settings: for reduction of ischemic area vs sham: Silastic tube 24 h prior to MCAO, sacrifice 24 h after MCAO

| SMILES | protection, ischemic lesion volume (in words) [1] | reduction of ischemic area [2] [%] | difference in % cell death with and without estrogen (in words) [3] | protection of BCEC (in words) [4] | blood level ([5]; 30 minutes after administration (peak)) | blood level ([5]; 4 hours) | blood level (in words) ([5]; by 25 hours) | ischemic area, percent of cross-sectional area of brain sections evaluated ([6]; pretreatment 24 h prior to MCAO, 3 brain slices, sham 25.6±5.7%) [%] | protective effect on ischemic area (in words) ([6]; tissue slices A-D, subcutaneous injection two hours prior to ischemic event) | reduction of ischemic area vs sham ([6]; slice C) [%] | reduction of ischemic area vs sham ([6]; slice D) [%] | reduction of ischemic area vs sham ([6]; slice E) [%] | protective effect on ischemic area (in words) ([6]; tissue slices A-E, sustained subcutaneous delivery initiated 24 hours prior) |
| --- | --- | --- | --- | --- | --- | --- | --- | --- | --- | --- | --- | --- | --- |
| C[C@]12CC[C@@H]3c4ccc(O)cc4CC[C@H]3[C@@H]1CC[C@@H]2O [17β-estradiol] | significant protection | 31 | little difference | effective in protecting cultured BCEC | 4,610 pg/ml | 2,004 pg/ml | near zero | 9.8±4.0 | significant protective effect | – | – | – | – |
| C[C@]12CC[C@@H]3c4ccc(O)cc4CC[C@H]3[C@@H]1CC[C@H]2O [17α-estradiol] | – | – | – | – | – | – | – | – | – | 55 | 66 | 81 | significant protective effect; also recorded: smaller ischemic areas compared with the sham treated animals in all slices evaluated |
